The values that follow are results of earlier work, collected in patent US20140194454A1, “COMBINATIONS OF TROSPIUM AND SALIVARY STIMULANTS FOR THE TREATMENT OF OVERACTIVE BLADDER” (TheraVida, Inc., priority 2011, published 2014).

Molecules are shown by their SMILES.

The conditions of the data set: 5 mg of pilocarpine.

For the compound `CC[C@@H]1C(=O)OC[C@@H]1Cc1cncn1C` [pilocarpine], the “time of maximum saliva output after administration” value is recorded as “about 30 minutes”.
